ChEMBL document CHEMBL5614412, “Regulation of protein phosphorylation by PTPN2 and its small-molecule inhibitors/degraders as a potential disease treatment strategy” (Eur J Med Chem, 2024)
Each block holds one compound with its values, some of them ahead of it. Starred links: 1 amine or outer side, 2 acyl side, 3 side chain; linkers in the order of their positions; H or OH if unused. Non-standard residues stand in square brackets, D forms with d. Residues, ends and D or L forms follow the SMILES beside them. ξ: configuration not given here. *: point of attachment. NHCH2(1,3-C6H4)CH2CO = O=C(Cc1cccc(CN[*:1])c1)[*:2]; ξF2Pmp = NC(Cc1ccc(C(F)(F)P(=O)(O)O)cc1)C(=O)O; Benzoyl(3-Br,4-Me) = Cc1ccc(C(=O)*)cc1Br; ξPro(4R-OH) = O=C(O)C1C[C@@H](O)CN1; X2 = Cc1ncsc1-c1ccc([C@H](C)N*)cc1; Tle = CC(C)(C)[C@H](N)C(=O)O; X1 = COc1ccc(CC(=O)*)cc1O

Columns and labels:
B16 = test: Antiproliferative activity against mouse B16 cells; assay type: functional, cell-based
[1] = molecular target: T1, Tyrosine-protein phosphatase non-receptor type 1 (Homo sapiens, UniProt P18031); test: Inhibition of PTP1B (unknown origin)
T1 sequence (P18031 whole entry): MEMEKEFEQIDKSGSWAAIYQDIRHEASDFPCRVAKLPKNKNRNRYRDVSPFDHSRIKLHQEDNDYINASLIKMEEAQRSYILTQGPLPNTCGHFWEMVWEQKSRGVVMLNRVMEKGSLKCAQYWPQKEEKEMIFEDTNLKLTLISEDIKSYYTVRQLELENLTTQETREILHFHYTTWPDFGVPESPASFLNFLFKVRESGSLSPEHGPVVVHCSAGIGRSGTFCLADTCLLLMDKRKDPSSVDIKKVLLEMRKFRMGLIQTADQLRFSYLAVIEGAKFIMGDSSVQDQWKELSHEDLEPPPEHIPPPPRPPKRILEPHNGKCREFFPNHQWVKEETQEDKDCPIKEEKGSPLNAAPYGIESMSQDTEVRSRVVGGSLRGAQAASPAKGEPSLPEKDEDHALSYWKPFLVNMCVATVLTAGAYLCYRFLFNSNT

[2] = molecular target: Protein cereblon/Tyrosine-protein phosphatase non-receptor type 2 (Homo sapiens, UniProt P17706+Q96SW2); test: PROTAC activity at PTPN2/CRBN in HEK293 cells assessed as protein degradation measured for 48 hrs by Western blot analysis; assay type: cell-based
[3] = molecular target: Protein cereblon/Tyrosine-protein phosphatase non-receptor type 1 (Homo sapiens, UniProt P18031+Q96SW2); test: PROTAC activity at PTP1B/CRBN in HEK293 cells assessed as protein degradation measured for 48 hrs by Western blot analysis; assay type: cell-based
Homo sapiens = species: Homo sapiens; test: Selectivity index, ratio of DC50 for PROTAC activity at PTP1B/CRBN in HEK293 cells to DC50 for PROTAC activity at PTPN2/CRBN in HEK293 cells; assay type: cell-based
[4] = molecular target: T2, Tyrosine-protein phosphatase non-receptor type 2 (Homo sapiens, UniProt P17706); test: Inhibition of PTPN2 (unknown origin)
T2 sequence (P17706 whole entry): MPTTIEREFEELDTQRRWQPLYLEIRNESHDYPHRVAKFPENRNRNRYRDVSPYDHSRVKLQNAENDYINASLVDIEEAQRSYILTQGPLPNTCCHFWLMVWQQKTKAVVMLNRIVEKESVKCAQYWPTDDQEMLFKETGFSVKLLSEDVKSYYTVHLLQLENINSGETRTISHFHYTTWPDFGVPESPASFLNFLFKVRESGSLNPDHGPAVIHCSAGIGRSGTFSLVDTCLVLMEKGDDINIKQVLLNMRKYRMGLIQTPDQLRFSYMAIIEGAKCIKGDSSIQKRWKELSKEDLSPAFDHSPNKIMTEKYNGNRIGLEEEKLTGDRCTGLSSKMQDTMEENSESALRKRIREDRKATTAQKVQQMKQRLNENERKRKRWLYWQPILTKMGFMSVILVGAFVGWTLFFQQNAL

[5] = molecular target: T2, Tyrosine-protein phosphatase non-receptor type 2
Description: Inhibition of full-length human recombinant PTPN2 incubated for 20 mins by mobile shift assay

[6] = Inhibition of PTP1B/PTPN2 (unknown origin) in mouse B16 cells; assay type: cell-based, Homo sapiens
[7] = molecular target: T2, Tyrosine-protein phosphatase non-receptor type 2; remark: listed apart in the source
Description: Inhibition of human PTPN2 extracted from Escherichia coli BL21 (DE3) by fluorescence based analysis

Chain of Protein cereblon/Tyrosine-protein phosphatase non-receptor type 2 (Q96SW2 whole entry, one chain of several): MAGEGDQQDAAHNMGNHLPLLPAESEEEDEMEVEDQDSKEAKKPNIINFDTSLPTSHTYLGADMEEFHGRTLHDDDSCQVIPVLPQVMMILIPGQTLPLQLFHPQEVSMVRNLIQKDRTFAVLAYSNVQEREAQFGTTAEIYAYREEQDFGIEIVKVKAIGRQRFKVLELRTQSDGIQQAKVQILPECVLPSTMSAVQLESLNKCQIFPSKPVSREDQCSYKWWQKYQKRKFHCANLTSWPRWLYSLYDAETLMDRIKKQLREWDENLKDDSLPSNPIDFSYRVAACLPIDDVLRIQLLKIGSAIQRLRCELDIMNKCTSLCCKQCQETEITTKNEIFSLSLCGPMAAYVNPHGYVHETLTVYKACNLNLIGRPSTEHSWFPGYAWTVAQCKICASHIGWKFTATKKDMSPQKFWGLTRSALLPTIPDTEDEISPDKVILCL
Chain of Protein cereblon/Tyrosine-protein phosphatase non-receptor type 1 (Q96SW2 whole entry, one chain of several): as above

Structure (SMILES): CC1(C)CCC[C@H](NCc2cc(O)c(N3CC(=O)NS3(=O)=O)c(F)c2)C1
IC50 (B16): 770 nM

Structure (SMILES): COc1cc(CC(=O)NC(Cc2ccccc2)C(=O)NC(Cc2ccc(C(F)(F)P(=O)(O)O)cc2)C(=O)N[C@@H](CCCCNC(=O)c2ccc(C)c(Br)c2)C(N)=O)ccc1O (some centres undefined)
IC50 [1]: 120 nM

Structure (SMILES): CC(C)CCN[C@@H]1C[C@H]2C[C@@H]1c1c2cc(O)c(N2CC(=O)NS2(=O)=O)c1F
IC50 (B16): 7820 nM

Structure (SMILES): CC(C)CCNC1CNc2cc(O)c(N3CC(=O)NS3(=O)=O)c(F)c2C1 (centres undefined)
IC50 (B16): 1400 nM

DC50 [2]: 217 nM
DC50 [3]: 13100 nM
Structure (SMILES): Cc1ncsc1-c1ccc(C(C)CC(=O)[C@H]2C[C@H](O)CN2C(=O)[C@@H](NC(=O)CCCCCNC(=O)n2cc(-c3ccc4cc(O)c(N5CC(=O)NS5(=O)=O)c(F)c4c3)cn2)C(C)(C)C)cc1 (some centres undefined)
Selectivity Index (Homo sapiens): > 60

Structure (SMILES): COc1ccc(CC(=O)N[C@@H](Cc2ccccc2)C(=O)NC(Cc2ccc(C(F)(F)P(=O)(O)O)cc2)C(=O)N[C@@H](CCCCNC(=O)c2ccc(C)c(Br)c2)C(=O)NCc2cccc(CC(=O)N[C@H](C(=O)N3C[C@H](O)CC3C(=O)N[C@@H](C)c3ccc(-c4scnc4C)cc3)C(C)(C)C)c2)cc1O (stereo partly drawn) (X1-F[ξF2Pmp]K(Benzoyl(3-Br,4-Me))[NHCH2(1,3-C6H4)CH2CO][Tle][ξPro(4R-OH)]-X2)
DC50 [2]: 7 nM
DC50 [3]: 14.8 nM
Selectivity Index (Homo sapiens): 2.1

Structure (SMILES): O=C1CN(c2c(O)cc(NC(=O)NC3CCCCC3)cc2F)S(=O)(=O)N1
IC50 [4]: < 5 nM
IC50 (B16): < 5000 nM

Structure (SMILES): CC(C)CCN[C@@H]1CCc2cc(O)c(N3CC(=O)NS3(=O)=O)c(F)c2C1 [OSUNPROTAFIB]
IC50 [5]: 1.8 nM
IC50 (B16): 64 nM
EC50 [6]: 180 nM
IC50 [7]: 1.8 nM

IC50 [5]: 3.9 nM
EC50 [6]: 2650 nM
IC50 [7]: 3.9 nM
Structure (SMILES): O=C1CN(c2c(O)cc3ccc(NCC4CC4)cc3c2F)S(=O)(=O)N1

Structure (SMILES): CC[C@@H]1CCN(CCc2cc(O)c(N3CC(=O)NS3(=O)=O)c(F)c2)C1
IC50 (B16): 130 nM

IC50 [4]: 65 nM
Structure (SMILES): CCc1cc(C[C@H](NC(C)=O)C(=O)NCCCCOc2cccc(O)c2C(=O)OC)ccc1N(C(=O)C(=O)O)c1ccccc1C(=O)O

Structure (SMILES): CCc1ccc(C(=O)NCCCC[C@H](NC(=O)[C@H](Cc2ccc(C(F)(F)P(=O)(O)O)cc2)NC(=O)[C@H](Cc2ccccc2)NC(=O)O[C@H]2C[C@@H](C)CC[C@@H]2C(C)C)C(=O)NCCOCCC(=O)Nc2cccc3c2CN(C2CCC(=O)NC2=O)C3=O)cc1 (some centres undefined)
DC50 [2]: 35.8 nM
Selectivity Index (Homo sapiens): > 110

DC50 [2]: < 100 nM
Structure (SMILES): CC1(C)C[C@H](Nc2cccc(-c3sc(C(=O)O)c(OCC(=O)O)c3Cl)c2)CCN1S(=O)(=O)Cc1cccc(NC(=O)N2CCC(c3ccc4c5c(cccc35)C(=O)N4[C@@H]3CCC(=O)NC3=O)CC2)c1

IC50 [4]: 7.1 nM
Structure (SMILES): N#Cc1ccc2cc(Br)c(C(F)(F)P(=O)(O)O)cc2c1

DC50 [2]: 10 nM
Structure (SMILES): Cn1c(=O)n(C2CCC(=O)NC2=O)c2ccc(-c3ccc(CC(=O)Nc4ccc5c(F)c(N6CC(=O)NS6(=O)=O)c(O)cc5c4)cc3)cc21 (centres undefined)

Structure (SMILES): O=C1CN(c2c(O)cc3c(c2F)C[C@H](NCCC(F)F)N3)S(=O)(=O)N1
IC50 [4]: 10 nM
IC50 (B16): 700 nM
IC50 [1]: 10 nM

Structure (SMILES): CC1CCN=C(Nc2cc(O)c(N3CC(=O)NS3(=O)=O)c(F)c2)N1 (centres undefined)
IC50 [4]: 10 nM
IC50 (B16): 5000 nM

Structure (SMILES): O=C1CN(c2c(O)cc3c(c2F)C[C@H](NCCCC(F)F)CS3)S(=O)(=O)N1
IC50 [4]: < 10 nM
IC50 (B16): 160 nM
IC50 [1]: < 10 nM
